Experimental data reported in patent US10590373B2, “Systems and methods for biomimetic fluid processing” (BRIGHAM AND WOMEN'S HOSPITAL, INC., priority 2014, dated 2020).

System: mouse fetal liver culture-derived (mFLC) MKs
Experiment: shear-induced proPLT production and PLT release by MKs in the microfluidic device after drug incubation
Assay type: cell-based
Settings: for PLT release: under both static and physiological shear conditions; for shear-induced proPLT production: physiological shear
Experimental: Devices were coated with a 0.22 μm filtered 10% BSA solution (Millipore, Billerica, Mass.) for 30 minutes to prevent direct cell contact with glass. Referring to FIG. 1, primary MKs and media were infused in the first inlet 118 and second inlet 122, respectively, at a rate of 12.5 μL/hour using a two-syringe microfluidic pump (Harvard Apparatus, Holliston, Mass.). When the first outlet 120 was closed, both input solutions were redirected toward the second outlet 124 causing primary MKs to trap.
For shear cultures, MKs were loaded onto ‘naked’ microfluidic devices (only BSA-coated), and the infusion rate was doubled incrementally from 12.5 μL/hr to 200 μL/hr over a 2 hour period. For static cultures, isolated MKs were pipetted into chambers formed by mounting a glass coverslide coated with 3% BSA onto a […] with a 1 cm hole and cultured for 24 hours. Both static and shear cultures were maintained at 37 degrees C. and 5 percent CO2 and examined on a Zeiss Axiovert 200 (Carl Zeiss, Thornwood, N.Y.) equipped with 10× (numerical aperature, 0.30) Plan-Neofluar air objective. Differential interference contrast (DIC) images were obtained using CCD camera (Hamamatsu Photonics, Boston, Mass.) at either 2 second (shear cultures) or 20 minute (static cultures) intervals. Images were analyzed using the Metamorph version 7.7.2.0 image analysis software (Molecular Devices, Sunnyvale, Calif., USA) and ImageJ software version 1.47p. ProPLT extension rates were determined manually for over 200 MKs from at least three independent samples. For PLT spreading experiments, effluent was collected from microfluidic devices after 2 hours and pipetted into uncoated static culture chambers, described above. PLTs were permitted to contact glass by gravity sedimentation and spreading was captured at 5 second intervals over a 5 minute period.
In vivo BM MKs extend proPLTs in the direction of blood flow and release PLTs, proPLTs, large cytoplasmic fragments (prePLTs), and even whole MKs into sinusoidal blood vessels which may be trapping in the pulmonary microvascular bed, or otherwise maturing in the circulation. To determine the effect of physiological shear on PLT production, mouse fetal liver culture-derived (mFLC) MKs were isolated on culture day 4 and characterized by size and ploidy before being infused into the microfluidic device (shown in FIG. 3A).
While shear rates were kept constant, proPLT extension rates varied at different positions along the shaft, predictive of a regulated cytoskeletal driven mechanism of proPLT elongation (shown in FIG. 4C). […]

Structure (SMILES)	PLT release (5 μM Jas)	shear-induced proPLT production (MKs incubated with 5 μM Jas prior to infusion in microfluidic device)	PLT release (1 mM EHNA)	shear-induced proPLT production (MKs incubated with 1 mM EHNA prior to infusion in microfluidic device)
C/C1=C\[C@H](C)C[C@H](C)OC(=O)C[C@H](c2ccc(O)cc2)NC(=O)[C@@H](Cc2c(Br)[nH]c3ccccc23)N(C)C(=O)[C@H](C)NC(=O)[C@@H](C)C1 [Jas, Jasplankinolide]	inhibited	inhibit	–	–
CCCCCC[C@@H]([C@@H](C)O)n1cnc2c(N)ncnc21 (racemic) [EHNA]	–	–	inhibited	inhibit
